Where two headings read alike, the source gives them in different places.
Legend:
[1] = Tacrolimus concentration in gastrointestinal tissue, luminal content and rectal contents, and tissue/plasma ratios (Example 13); format: in vivo, Yorkshire-Cross farm swine; conditions: female, Yorkshire-Cross, pig; for concentration at 12 hr: other: intra-cecal device; for concentration at 12 hr / concentration at 12 h: 12 hr post dose
Description: The primary objective of this study was to study the pharmacokinetics of oral versus intra-cecal administration of tacrolimus in normal Yorkshire-Cross farm swine.
This study compares the effects of administration of: a single intra-cecal administration of a device containing 0.8 mL sterile vehicle solution (80% alcohol, 20% castor oil (HCO-60)); a single oral dose of tacrolimus at 0.09 mg/kg (in sterile vehicle solution); and a single intra-cecal administration of a device containing either 0.02 mg/kg (in sterile vehicle solution), 0.04 mg/kg (in sterile vehicle solution), or 0.09 mg/kg (in sterile vehicle solution).
This study employed five groups of three female swine weighing approximately 45 to 50 kg at study start. Swine were randomly placed into animal rooms/pens as they are transferred from the delivery vehicle without regard to group. Group numbers were assigned to the rooms in order of room number. No further randomization procedure was employed.
Animals in Group 1 received intra-cecally a device containing a vehicle solution (80% alcohol, 20% HCO-60). Animals in Group 2 received orally a liquid formulation of tacrolimus at 0.09 mg/kg per animal. Animals in Group 3 received intra-cecally a device containing tacrolimus at 0.02 mg/kg per device. Animals in Group 4 received intra-cecally a device containing tacrolimus 0.04 mg/kg per device. Animals in Group 5 received intra-cecally a device containing tacrolimus 0.09 mg/kg per device.

[2] = Blood pharmacokinetics of oral vs intra-cecal tacrolimus (Example 13); parameters: species or system Yorkshire-Cross farm swine; conditions: in vivo; for concentration at 12 hr: Trough (12 hr)
Description: (§1) No further randomization procedure was employed.

[3] = Tissue, plasma, rectal sample and GI content pharmacokinetics of tacrolimus, oral vs intra-cecal ingestible device (Example 10); parameters: species or system Yorkshire-Cross farm swine; conditions: in vivo
Description: The primary objective of this study was to compare the tissue, plasma, rectal sample, and GI content pharmacokinetics of tacrolimus through oral versus intra-cecal ingestible device delivery in normal Yorkshire-Cross farm swine.
as §1
Animals in Group 1 received an ingestible device containing 0.8 mL of vehicle solution (80% alcohol, 20% HCO-60). Animals in Group 2 received orally […] liquid formulation of tacrolimus at 4 mg/0.8 mL per animal (Prograf: 5 mg/mL). Animals in Group 3 received intra-cecally an ingestible device containing tacrolimus at 1 mg in 0.8 mL per ingestible device. Animals in Group 4 received intra-cecally an ingestible device containing tacrolimus at 2 mg in 0.8 mL per ingestible device. Animals in Group 5 received intra-cecally an ingestible device containing tacrolimus at 4 mg in 0.8 mL per ingestible device. To control for potential confounding effects of the surgery, all groups fast on Day −11 at least 24 hr before being subjected to anesthesia followed by surgical placements of a cecal port by a veterinary surgeon at Day −10. All animals were fasted for at least 12 hr prior to dosing on Day 1. Animals were dosed via either intra-cecal dosing (IC) or oral dosing (PO) at Day 1 (between 6-8 p.m.). All animals resumed feeding at approximately 4 hours after dose (11-12 p.m. after dosing).
Animals in Group 1 (Vehicle Control) were administered a single intra-cecal ingestible device containing 0.8 mL Vehicle solution (80% alcohol, 20% castor oil (HCO-60) on Day 1. On Day −10 the animals were anesthetized, and a veterinary surgeon surgically placed an intra-cecal port in each animal. On Day 1, each animal was placed into a sling then a single intra-cecal ingestible device containing 0.8 mL vehicle solution (80% alcohol, 20% castor oil (HCO-60)) is introduced by the veterinary surgeon into the cecum via the cecal port in each animal. Following ingestible device placement, the animals were removed from the slings and placed back into their pens with water. All animals resumed feeding at approximately 4 hours after dose. […] A total of 60 samples were collected.
Approximately 200˜400 mg of rectal content were collected, if available, with a fecal swab (Copan Diagnostics Nylon Flocked Dry Swabs, 502CS01). The fecal swab was pre-weighed and weighed after collection in the collection tube (Sterile Tube and Cap No Media, PFPM913S), and the sample weight was recorded. The fecal swab was broken via the breakpoint, and was stored in the collection tube, and immediately frozen at −70° C. […] Immediately following euthanasia, tissue was collected.
For tissue necropsy, small intestine fluid and cecal fluid were collected separately from all the animals into two separate square plastic bottles, and stored at −20° C. The length and diameter of the cecum and the colon was measured from one animal in each group and recorded for reference. Tissues were collected for pharmacokinetic analyses and include mesenteric lymph nodes, a Peyer's Patch, and five gastrointestinal sections, including cecum, proximal colon, transverse colon, distal colon, and rectum. All samples were weighed, and the tissue sample weights were recorded. In each of the five gastrointestinal sections, tissue samples were collected in three different areas where the mucosal surface was visible and not covered by luminal content by using an 8.0-mm punch biopsy tool. Around 3 grams of the total punched sample were collected into a pre-weighed 15-mL conical tube, and the tissue weight was recorded. Three mesenteric lymph nodes were collected from different areas and weighed. At least one Peyer's Patch was collected and weighed.
Luminal contents were collected for pharmacokinetic analyses from the surface of the tissue from each of five gastrointestinal sections: cecum, proximal colon, transverse colon, distal colon, and rectum (total of 75). […]

[4] = female, Yorkshire-Cross, pig, 0.02 mg/kg
[5] = female, Yorkshire-Cross, pig, 0.04 mg/kg
[6] = female, Yorkshire-Cross, pig, 0.09 mg/kg

C=CC[C@@H]1/C=C(\C)C[C@H](C)C[C@H](OC)[C@H]2O[C@@](O)(C(=O)C(=O)N3CCCC[C@H]3C(=O)O[C@H](/C(C)=C/[C@@H]3CC[C@@H](O)[C@H](OC)C3)[C@H](C)[C@@H](O)CC1=O)[C@H](C)C[C@@H]2OC [tacrolimus]
Kp at 12 h ([1]; cecum tissue, other: intra-cecal, 0.04 mg/kg, cecum, Group 4 IC (0.04 mg/kg), swine, read-out: Ratio Tissue (mean) (ng/g)/Trough(12 hr) (ng/ml)): 26.7
Kp at 12 h ([1]; cecum tissue, other: intra-cecal, 0.09 mg/kg, cecum, Group 5 IC (0.09 mg/kg), swine, read-out: Ratio Tissue (mean) (ng/g)/Trough(12 hr) (ng/ml)): 17.8
Kp at 12 h ([1]; distal colon tissue, other: intra-cecal, 0.02 mg/kg, distal colon, Group 3 IC (0.02 mg/kg), swine, read-out: Ratio Tissue (mean) (ng/g)/Trough(12 hr) (ng/ml)): 59.9
Kp at 12 h ([1]; distal colon tissue, other: intra-cecal, 0.04 mg/kg, distal colon, Group 4 IC (0.04 mg/kg), swine, read-out: Ratio Tissue (mean) (ng/g)/Trough(12 hr) (ng/ml)): 14.6
Kp at 12 h ([1]; distal colon tissue, other: intra-cecal, 0.09 mg/kg, distal colon, Group 5 IC (0.09 mg/kg), swine, read-out: Ratio Tissue (mean) (ng/g)/Trough(12 hr) (ng/ml)): 15.6
Ratio Tissue (mean) (ng/g)/AUG(0-12 hr) (ng · hr/ml) ([1]; in vivo, po, 0.09 mg/kg, 12 h): 0
Ratio Tissue (mean) (ng/g)/Trough(12 hr) (ng/ml) ([1]; in vivo, po, 0.09 mg/kg, 12 h): 0
Kp at 12 h ([1]; in vivo, po, 0.09 mg/kg, Ratio Tissue (mean) (ng/g)/AUG(0-12 hr) (ng · hr/ml)): 0
Kp at 12 h ([1]; in vivo, po, 0.09 mg/kg, Ratio Tissue (mean) (ng/g)/Trough(12 hr) (ng/ml)): 0
concentration at 12 hr ([1]; distal colon tissue, Group 3 IC (0.02 mg/kg), swine): 44.7 ng/g
concentration at 12 hr ([1]; proximal colon tissue, Group 3 IC (0.02 mg/kg), swine): 50.2 ng/g
concentration at 12 hr ([1]; spiral colon tissue, Group 3 IC (0.02 mg/kg), swine): 204 ng/g
concentration at 12 hr ([1]; spiral colon tissue, Group 4 IC (0.04 mg/kg), swine): 342 ng/g
concentration at 12 hr ([1]; spiral colon tissue, Group 5 IC (0.09 mg/kg), swine): 783 ng/g
concentration at 12 hr ([1]; transverse colon tissue, Group 3 IC (0.02 mg/kg), swine): 128 ng/g
concentration at 12 hr ([1]; transverse colon tissue, Group 4 IC (0.04 mg/kg), swine): 85.8 ng/g
concentration at 12 hr ([1]; transverse colon tissue, Group 5 IC (0.09 mg/kg), swine): 272 ng/g
concentration at 12 h ([1]; other: intra-cecal, cecum tissue, Group 4 IC (0.04 mg/kg), swine): 52.3 ng/g
concentration at 12 h ([1]; other: intra-cecal, cecum tissue, Group 5 IC (0.09 mg/kg), swine): 77.3 ng/g
concentration at 12 h ([1]; other: intra-cecal, distal colon tissue, Group 4 IC (0.04 mg/kg), swine): 28.7 ng/g
concentration at 12 h ([1]; other: intra-cecal, distal colon tissue, Group 5 IC (0.09 mg/kg), swine): 67.7 ng/g
concentration at 12 h ([1]; other: intra-cecal, proximal colon tissue, Group 4 IC (0.04 mg/kg), swine): 98.3 ng/g
concentration at 12 h ([1]; other: intra-cecal, proximal colon tissue, Group 5 IC (0.09 mg/kg), swine): 157 ng/g
Kp at 12 h ([1]; proximal colon tissue, other: intra-cecal, 0.02 mg/kg, proximal colon, Group 3 IC (0.02 mg/kg), swine, read-out: Ratio Tissue (mean) (ng/g)/Trough(12 hr) (ng/ml)): 67.3
Kp at 12 h ([1]; proximal colon tissue, other: intra-cecal, 0.04 mg/kg, proximal colon, Group 4 IC (0.04 mg/kg), swine, read-out: Ratio Tissue (mean) (ng/g)/Trough(12 hr) (ng/ml)): 50.1
Kp at 12 h ([1]; proximal colon tissue, other: intra-cecal, 0.09 mg/kg, proximal colon, Group 5 IC (0.09 mg/kg), swine, read-out: Ratio Tissue (mean) (ng/g)/Trough(12 hr) (ng/ml)): 36.1
Kp at 12 h ([1]; spiral colon tissue, other: intra-cecal, 0.02 mg/kg, spiral colon, Group 3 IC (0.02 mg/kg), swine, read-out: Ratio Tissue (mean) (ng/g)/Trough(12 hr) (ng/ml)): 273
Kp at 12 h ([1]; spiral colon tissue, other: intra-cecal, 0.04 mg/kg, spiral colon, Group 4 IC (0.04 mg/kg), swine, read-out: Ratio Tissue (mean) (ng/g)/Trough(12 hr) (ng/ml)): 175
Kp at 12 h ([1]; spiral colon tissue, other: intra-cecal, 0.09 mg/kg, spiral colon, Group 5 IC (0.09 mg/kg), swine, read-out: Ratio Tissue (mean) (ng/g)/Trough(12 hr) (ng/ml)): 180
Kp at 12 h ([1]; transverse colon tissue, other: intra-cecal, 0.02 mg/kg, transverse colon, Group 3 IC (0.02 mg/kg), swine, read-out: Ratio Tissue (mean) (ng/g)/Trough(12 hr) (ng/ml)): 172
Kp at 12 h ([1]; transverse colon tissue, other: intra-cecal, 0.04 mg/kg, transverse colon, Group 4 IC (0.04 mg/kg), swine, read-out: Ratio Tissue (mean) (ng/g)/Trough(12 hr) (ng/ml)): 43.8
Kp at 12 h ([1]; transverse colon tissue, other: intra-cecal, 0.09 mg/kg, transverse colon, Group 5 IC (0.09 mg/kg), swine, read-out: Ratio Tissue (mean) (ng/g)/Trough(12 hr) (ng/ml)): 62.5
AUC(0-t) [2, 4]: 15.3 ± 2.36 ng·h/mL
Cmax [2, 4]: 2.39 ± 0.57 ng/mL
concentration at 12 hr [2, 4]: 0.746 ± 0.038 ng/mL
AUC(0-t) [2, 5]: 51.4 ± 4.04 ng·h/mL
Cmax [2, 5]: 9.2 ± 3.3 ng/mL
concentration at 12 hr [2, 5]: 1.96 ± 0.491 ng/mL
AUC(0-t) [2, 6]: 130 ± 7.83 ng·h/mL
Cmax [2, 6]: 21.8 ± 4.73 ng/mL
concentration at 12 hr [2, 6]: 4.35 ± 0.561 ng/mL
concentration at 12 hr ([2]; female, Yorkshire-Cross, pig, po, 0.09 mg/kg): 0.568 ± 0.291 ng/mL
concentration at 12 h ([2]; female, Yorkshire-Cross, pig, po, 0.09 mg/kg, Trough level (12 hr)): 0.568 ng/mL
mean concentration and AUC0-12 hours of tacrolimus in the blood ([2]; po, 0.09 mg/kg): higher
exposure AUC [3]: < 2000-12 ng·h/mL
luminal content (spiral, transverse, and distal colon) concentrations [3]: Significantly higher
mean concentration of tacrolimus in the cecum tissue and the proximate colon tissue [3]: higher
tissue (spiral and transverse colon) concentrations [3]: Significantly higher
level of tacrolimus in tissue ([3]; po): No measurable level
rectal content concentration ([3]; po): no detectable level

— US20200094031A1, “TREATMENT OF A DISEASE OF THE GASTROINTESTINAL TRACT WITH A CHST15 INHIBITOR” (Progenity, Inc., priority 2017, published 2020)
